One molecule from US20170029866A1 (Ameritox, Ltd, priority 2015, published 2017) can be followed below.

Series [1] in a line: Haldol in urine samples after hydrolysis with a betaglucuronidase enzyme. It counts as in vivo, human.
Series [2] is described as follows: Haldol in urine samples before hydrolysis. The note with it: Without Hydrolysis; summary of Table 1, N 151. In kind it is in vivo, human.
[3] abbreviates: With hydrolysis, summary of Table 1, N 151.

In series [1] (setting [3]), `O=C(CCCN1CCC(O)(c2ccc(Cl)cc2)CC1)c1ccc(F)cc1` [Haldol, Haloperidol] registered an Avg of 982.5, a Max of 16805.6 and a Min of 0.0. Moreover, the “amount of Haldol determined in urine samples post hydrolysis versus before” value in series [1] (human urine, betaglucuronidase hydrolysis) was “increased post hydrolysis”. Besides, in series [2], the Avg was 30.7, the Max turned out to be 414.0 and the Min is on record as 0.0.
